Reference: ChEMBL document CHEMBL1221359, “The discovery of a series of N-substituted 3-(4-piperidinyl)-1,3-benzoxazolinones and oxindoles as highly brain penetrant, selective muscarinic M1 agonists” (Bioorg Med Chem Lett, 2010)
Activity calls are given as the source filed them. No cut-off for these calls is given here.

Columns and labels:
[1] = molecular target: T1, Muscarinic acetylcholine receptor M1 (Homo sapiens, UniProt P11229); assay: Agonist activity at human muscarinic M1 receptor expressed in CHO cells assessed as effect on calcium mobilization by FLIPR assay; assay type: functional, cell-based
T1 sequence (P11229 whole entry): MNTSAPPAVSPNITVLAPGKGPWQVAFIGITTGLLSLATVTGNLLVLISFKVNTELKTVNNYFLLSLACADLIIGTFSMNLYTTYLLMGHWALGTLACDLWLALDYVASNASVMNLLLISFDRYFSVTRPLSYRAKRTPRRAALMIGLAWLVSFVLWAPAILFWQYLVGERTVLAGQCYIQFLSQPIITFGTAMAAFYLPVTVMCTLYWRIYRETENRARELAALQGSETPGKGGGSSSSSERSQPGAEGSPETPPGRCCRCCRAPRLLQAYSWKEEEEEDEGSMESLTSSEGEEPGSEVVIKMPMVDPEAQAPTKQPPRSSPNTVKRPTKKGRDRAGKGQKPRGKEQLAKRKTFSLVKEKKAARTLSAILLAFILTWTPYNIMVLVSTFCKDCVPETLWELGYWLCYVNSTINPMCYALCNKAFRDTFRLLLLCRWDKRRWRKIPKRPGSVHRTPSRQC

[2] = molecular target: Muscarinic acetylcholine receptor M3 (Homo sapiens, UniProt P20309); assay: Agonist activity at human muscarinic M3 receptor expressed in CHO cells assessed as effect on calcium mobilization by FLIPR assay; assay type: functional, cell-based
[3] = molecular target: T2, Muscarinic acetylcholine receptor M4 (Homo sapiens, UniProt P08173); assay: Agonist activity at human muscarinic M4 receptor expressed in CHO cells co-expressing Gqi5 chimeric G-protein assessed as effect on calcium mobilization by FLIPR assay; assay type: functional, cell-based
T2 sequence (P08173 whole entry): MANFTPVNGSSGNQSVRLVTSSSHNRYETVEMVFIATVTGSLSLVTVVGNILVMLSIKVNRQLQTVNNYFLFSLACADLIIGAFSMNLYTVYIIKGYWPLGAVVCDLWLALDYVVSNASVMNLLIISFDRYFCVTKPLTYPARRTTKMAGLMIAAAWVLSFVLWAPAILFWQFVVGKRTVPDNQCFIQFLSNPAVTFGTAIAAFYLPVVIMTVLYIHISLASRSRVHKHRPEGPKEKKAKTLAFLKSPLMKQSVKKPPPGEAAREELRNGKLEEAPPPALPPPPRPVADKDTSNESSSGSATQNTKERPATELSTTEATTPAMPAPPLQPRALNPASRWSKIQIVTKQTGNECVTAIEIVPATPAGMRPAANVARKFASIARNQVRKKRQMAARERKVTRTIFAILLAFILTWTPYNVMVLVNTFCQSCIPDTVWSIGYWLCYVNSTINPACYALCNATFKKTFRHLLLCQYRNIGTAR

[4] = molecular target: T3, Muscarinic acetylcholine receptor M5 (Homo sapiens, UniProt P08912); assay: Agonist activity at human muscarinic M5 receptor expressed in CHO cells assessed as effect on calcium mobilization by FLIPR assay; assay type: functional, cell-based
T3 sequence (P08912 whole entry): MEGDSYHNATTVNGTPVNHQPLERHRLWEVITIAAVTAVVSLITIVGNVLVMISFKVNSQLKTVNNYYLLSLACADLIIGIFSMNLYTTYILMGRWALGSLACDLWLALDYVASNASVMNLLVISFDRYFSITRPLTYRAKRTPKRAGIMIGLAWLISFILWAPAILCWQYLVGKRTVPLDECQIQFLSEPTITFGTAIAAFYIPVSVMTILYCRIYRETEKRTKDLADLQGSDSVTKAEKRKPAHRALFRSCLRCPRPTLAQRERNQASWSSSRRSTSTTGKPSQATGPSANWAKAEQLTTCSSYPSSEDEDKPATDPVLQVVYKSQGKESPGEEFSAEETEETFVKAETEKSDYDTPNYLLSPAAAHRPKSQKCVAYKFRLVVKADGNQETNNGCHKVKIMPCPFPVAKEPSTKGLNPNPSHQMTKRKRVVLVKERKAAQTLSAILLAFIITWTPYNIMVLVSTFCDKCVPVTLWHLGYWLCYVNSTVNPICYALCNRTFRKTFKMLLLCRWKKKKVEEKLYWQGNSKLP

[5] = molecular target: T4, Muscarinic acetylcholine receptor M2 (Homo sapiens, UniProt P08172); assay: Agonist activity at human muscarinic M2 receptor expressed in CHO cells co-expressing Gqi5 chimeric G-protein assessed as effect on calcium mobilization by FLIPR assay; assay type: functional, cell-based
T4 sequence (P08172 whole entry): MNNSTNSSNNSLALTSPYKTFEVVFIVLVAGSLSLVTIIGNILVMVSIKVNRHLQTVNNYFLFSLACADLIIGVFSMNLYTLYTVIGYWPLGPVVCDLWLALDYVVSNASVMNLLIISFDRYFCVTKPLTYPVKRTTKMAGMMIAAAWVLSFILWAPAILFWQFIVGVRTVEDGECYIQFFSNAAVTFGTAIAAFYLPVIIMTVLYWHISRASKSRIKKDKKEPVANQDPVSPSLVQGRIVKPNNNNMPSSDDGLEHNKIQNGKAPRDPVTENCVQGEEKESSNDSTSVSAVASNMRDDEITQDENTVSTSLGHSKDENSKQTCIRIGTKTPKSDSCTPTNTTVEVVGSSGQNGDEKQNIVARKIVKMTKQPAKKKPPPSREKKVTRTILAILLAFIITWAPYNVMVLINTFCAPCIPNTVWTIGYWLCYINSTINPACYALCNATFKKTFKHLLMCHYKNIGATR

[6] = test system: Brain; assay: Drug level in rat brain assessed as tissue binding; assay type: ADME, tissue-based
[7] = Drug level in rat whole blood assessed as tissue binding; assay type: ADME, tissue-based
[8] = Ratio of drug level in brain to blood in rat at 1 mg/kg, iv; assay type: ADME, organism-based; set-up: dose 1 mg/kg, route intravenous
[9] = Clearance in rat blood at 3 mg/kg, po; assay type: ADME, organism-based; set-up: dose 3 mg/kg, route oral
[10] = Ratio of drug level in brain to blood in rat at 3 mg/kg, po; assay type: ADME, organism-based; set-up: dose 3 mg/kg, route oral
[11] = Inhibition of sigma receptor at 10 uM
[12] = species on record: Rattus norvegicus; assay: Cognitive enhancing effect in rat assessed as reversal of temporal-induced memory deficit by novel object recognition assay; assay type: functional, organism-based
[13] = test system: Rattus norvegicus; assay: Cognitive enhancing effect in rat assessed as reversal of temporal-induced memory deficit at 1 mg/kg by novel object recognition assay; assay type: functional, organism-based; set-up: dose 1 mg/kg

Chain of Muscarinic acetylcholine receptor M3 (P20309 whole entry): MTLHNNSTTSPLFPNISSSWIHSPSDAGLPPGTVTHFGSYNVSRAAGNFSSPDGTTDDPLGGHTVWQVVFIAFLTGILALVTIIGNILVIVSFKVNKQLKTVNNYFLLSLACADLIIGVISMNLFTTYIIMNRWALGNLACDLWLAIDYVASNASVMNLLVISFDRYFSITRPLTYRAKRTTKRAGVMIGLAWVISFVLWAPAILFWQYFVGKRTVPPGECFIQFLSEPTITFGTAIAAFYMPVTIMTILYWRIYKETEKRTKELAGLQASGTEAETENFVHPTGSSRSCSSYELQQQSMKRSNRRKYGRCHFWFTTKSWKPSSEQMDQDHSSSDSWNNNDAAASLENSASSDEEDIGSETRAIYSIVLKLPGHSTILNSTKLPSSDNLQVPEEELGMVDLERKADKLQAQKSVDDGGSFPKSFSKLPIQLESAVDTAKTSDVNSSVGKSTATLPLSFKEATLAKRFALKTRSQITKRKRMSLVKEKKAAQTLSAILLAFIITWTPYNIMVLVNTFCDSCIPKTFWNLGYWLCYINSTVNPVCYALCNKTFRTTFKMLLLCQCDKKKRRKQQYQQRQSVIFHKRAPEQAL

Row | SMILES | EC50 [1] | EC50 [2] | EC50 [3] | EC50 [4] | EC50 [5] | Drug uptake [6] | Drug uptake [7] | CL/F [9] | Kp [10] | inhibition [11] | Kp [8] | Activity [12] | Activity [13]
1 | CCO[C@H]1CC[C@](C)(N2CCC(n3c(=O)oc4ccc(S(=O)(=O)CC)cc43)CC2)CC1 | 200 nM | 398 nM | 1580 nM | 5010 nM | > 15800 nM | – | – | – | – | – | – | – | –
2 | Cc1cc2c(cc1F)[nH]c(=O)n2C1CCN(C2CCOCC2)CC1 | 5.01 nM | 2510 nM | 251 nM | – | – | – | – | – | – | – | – | – | –
3 | CCCO[C@H]1CC[C@](C)(N2CCC(n3c(=O)[nH]c4cc(F)c(C)cc43)CC2)CC1 | 0.398 nM | 79.4 nM | 12.6 nM | 12.6 nM | 20 nM | – | – | – | – | – | – | – | –
4 | CCO[C@H]1CC[C@](C)(N2CCC(n3c(=O)oc4cc(F)c(C)cc43)CC2)CC1 | 1 nM | 794 nM | 100 nM | 50.1 nM | 501 nM | – | – | – | – | – | – | – | –
5 | CCCO[C@H]1CC[C@](C)(N2CCC(N3C(=O)Cc4ccc(C)cc43)CC2)CC1 | 0.501 nM | 63.1 nM | 39.8 nM | 20 nM | 63.1 nM | 94% | 80% | 85 mL/min/kg | – | – | 5.7 | – | –
6 | CO[C@H]1CC[C@](C)(N2CCC(N3C(=O)Cc4ccc(C)cc43)CC2)CC1 | 3.16 nM | 316 nM | 158 nM | 126 nM | 631 nM | – | – | – | – | – | – | – | –
7 | CCO[C@H]1CC[C@](C)(N2CCC(N3C(=O)Cc4ccc(C)cc43)CC2)CC1 | 0.398 nM | 126 nM | 31.6 nM | 20 nM | 100 nM | – | – | – | – | – | – | – | –
8 | CCO[C@H]1CC[C@](C)(N2CCC(n3c(=O)oc4ccccc43)CC2)CC1 | 25.1 nM | > 15800 nM | 126 nM | 1000 nM | > 15800 nM | – | – | – | – | – | – | – | –
9 | CCO[C@H]1CC[C@](C)(N2CCC(n3c(=O)oc4c(F)cc(C)cc43)CC2)CC1 | 1.26 nM | 2000 nM | 200 nM | 158 nM | 794 nM | – | – | – | – | – | – | – | –

Now from value to compound, other results behind:

Row | EC50 [1] | EC50 [2] | EC50 [3] | EC50 [4] | EC50 [5] | Drug uptake [6] | Drug uptake [7] | CL/F [9] | Kp [10] | inhibition [11] | SMILES | Kp [8] | Activity [12] | Activity [13]
10 | 2.51 nM | 631 nM | 200 nM | 158 nM | 631 nM | – | – | – | – | – | COCCO[C@H]1CC[C@](C)(N2CCC(n3c(=O)oc4ccc(C)cc43)CC2)CC1 | – | – | –
11 | 3.16 nM | 2510 nM | 794 nM | 398 nM | 2510 nM | – | – | – | – | – | CCO[C@H]1CC[C@](C)(N2CCC(n3c(=O)oc4ccc(C#N)cc43)CC2)CC1 | – | – | –
12 | 2.51 nM | 1580 nM | 158 nM | 158 nM | 398 nM | – | – | – | – | – | CCO[C@H]1CC[C@](C)(N2CCC(n3c(=O)oc4ccc(OC)cc43)CC2)CC1 | – | – | –
13 | 10 nM | 3980 nM | 794 nM | 1000 nM | 2510 nM | 61% | 42% | 23 mL/min/kg | 1.7 | 75% | COCCO[C@H]1CC[C@](C)(N2CCC(n3c(=O)oc4ccc(C#N)cc43)CC2)CC1 | – | Dose-dependent effect | Active
14 | 7.94 nM | 2000 nM | 501 nM | 398 nM | 1260 nM | – | – | – | – | – | CO[C@H]1CC[C@](C)(N2CCC(n3c(=O)oc4ccc(C)cc43)CC2)CC1 | – | – | –
15 | 2.51 nM | 3160 nM | 501 nM | 316 nM | 794 nM | 74% | 60% | 11 mL/min/kg | 0.8 | – | CCCO[C@H]1CC[C@](C)(N2CCC(n3c(=O)oc4ccc(S(C)(=O)=O)cc43)CC2)CC1 | – | – | –
16 | 12.6 nM | 1260 nM | 1580 nM | 1260 nM | 2510 nM | – | – | – | – | – | CCO[C@H]1CC[C@](C)(N2CCC(n3c(=O)oc4ccc(S(C)(=O)=O)cc43)CC2)CC1 | – | – | –
